Key:
[1] = target: T1, NAMPT (Homo sapiens, UniProt P43490); test: TR-FRET Binding Assay of NAMPT with PRPP; conditions: 2 nM NAMPT, 2 nM probe, 200 µM PRPP and 2.5 mM ATP, equilibrated 16 hours
In short: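 TR-FRET probe displacement with 2 nM NAMPT, 2 nM probe and 1 nM Tb-anti-His antibody in the presence of 200 µM PRPP and 2.5 mM ATP, 2% DMSO (all final). Equilibrated 16 hours before reading to permit possible enzymatic modification of compounds.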

[2] = target: T1, NAMPT; test: Time-Resolved Fluorescence Resonance Energy Transfer (TR-FRET) Binding Assay of NAMPT; conditions: 6.8 nM NAMPT, 200 nM probe, equilibrated 3 hours, no substrates
In short: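 Compound was mixed with enzyme, probe and antibody and equilibrated 3 h at room temperature. TR-FRET read at Ex 337 nm, Em 520/495 nm. Ratios were normalized to controls and fitted to a four-parameter logistic equation for IC50.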

[3] = tested on: PC3 cells; test: NAMPT Cell Proliferation Assay (Cell Titer Glo); assay type: cell-based; conditions: Homo sapiens, PC-3, 120 h, incubated 5 days, cell viability
In short: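 PC3 cells (500/well, RPMI with 10% heat-inactivated FBS) were exposed to 10-fold compound dilutions from […] for 5 days at 37 °C, 5% CO2. Viability was read with Cell Titer Glo; IC50 from sigmoidal fit of percent inhibition.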

T1 sequence (P43490 whole entry): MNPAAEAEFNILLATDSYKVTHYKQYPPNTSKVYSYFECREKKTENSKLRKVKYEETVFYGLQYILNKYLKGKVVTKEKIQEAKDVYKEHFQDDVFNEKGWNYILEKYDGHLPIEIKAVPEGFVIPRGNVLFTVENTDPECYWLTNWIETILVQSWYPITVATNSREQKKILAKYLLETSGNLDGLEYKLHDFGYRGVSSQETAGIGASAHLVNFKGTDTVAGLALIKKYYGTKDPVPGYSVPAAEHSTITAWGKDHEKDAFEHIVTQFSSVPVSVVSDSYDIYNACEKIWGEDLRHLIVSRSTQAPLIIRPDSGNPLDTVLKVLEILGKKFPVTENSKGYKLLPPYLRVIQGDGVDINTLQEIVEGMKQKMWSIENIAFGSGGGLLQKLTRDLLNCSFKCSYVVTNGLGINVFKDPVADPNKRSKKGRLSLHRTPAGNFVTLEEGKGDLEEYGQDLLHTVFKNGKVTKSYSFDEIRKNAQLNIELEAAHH

| Structure (SMILES) | IC50 [1] | IC50 [2] | IC50 [3] |
| --- | --- | --- | --- |
| O=C(CC1CCOCC1)N1CCC(c2ccc(NC(=O)N3CC(c4cccnc4)C3)cc2)C1 (stereo not drawn) [Example 64, 3-(pyridin-3-yl)-N-{4-[1-(tetrahydro-2H-pyran-4-ylacetyl)pyrrolidin-3-yl]phenyl}azetidine-1-carboxamide] | 0.171 nM | 52.1 nM | 71.1 nM |
| O=C(Nc1ccc(C2CCN(C(=O)[C@H]3CCCO3)C2)cc1)N1CC(c2cccnc2)C1 (stereo partly drawn) [Example 67, 3-(pyridin-3-yl)-N-(4-{1-[(2R)-tetrahydrofuran-2-ylcarbonyl]pyrrolidin-3-yl}phenyl)azetidine-1-carboxamide] | 0.171 nM | 173 nM | 78.5 nM |
| CC(C)(O)C(=O)N1CCC(c2ccc(NC(=O)N3CC(c4cccnc4)C3)cc2)C1 (stereo not drawn) [Example 70, N-{4-[1-(2-hydroxy-2-methylpropanoyl)pyrrolidin-3-yl]phenyl}-3-(pyridin-3-yl)azetidine-1-carboxamide] | 0.421 nM | 92.2 nM | 73.1 nM |
| O=C(Nc1ccc(C2CCN(C(=O)c3ccccc3)C2)cc1)N1CC(c2cccnc2)C1 (stereo not drawn) [Example 71, N-[4-(1-benzoylpyrrolidin-3-yl)phenyl]-3-(pyridin-3-yl)azetidine-1-carboxamide] | 0.184 nM | 20.1 nM | 10.7 nM |
| O=C(CC(F)(F)F)N1CCC(c2ccc(NC(=O)N3CC(c4cccnc4)C3)cc2)C1 (stereo not drawn) [Example 72, 3-(pyridin-3-yl)-N-{4-[1-(3,3,3-trifluoropropanoyl)pyrrolidin-3-yl]phenyl}azetidine-1-carboxamide] | 0.211 nM | 65.6 nM | 77.7 nM |
| O=C(Nc1ccc(C2CCN(C(=O)C3CC3)C2)cc1)N1CC(c2cccnc2)C1 (stereo not drawn) [Example 73, N-{4-[1-(cyclopropylcarbonyl)pyrrolidin-3-yl]phenyl}-3-(pyridin-3-yl)azetidine-1-carboxamide] | 0.663 nM | 156 nM | 84.5 nM |
| O=C(Nc1ccc(O[C@@H]2CCN(C(=O)[C@@H]3CCCO3)C2)cc1)N1CC(c2cccnc2)C1 [Example 78, 3-(pyridin-3-yl)-N-[4-({(3R)-1-[(2S)-tetrahydrofuran-2-ylcarbonyl]pyrrolidin-3-yl}oxy)phenyl]azetidine-1-carboxamide] | 0.226 nM | 137 nM | 56 nM |
| O=C(Nc1ccc(O[C@@H]2CCN(C(=O)C3CC3)C2)cc1)N1CC(c2cccnc2)C1 [Example 85, N-(4-{[(3R)-1-(cyclopropylcarbonyl)pyrrolidin-3-yl]oxy}phenyl)-3-(pyridin-3-yl)azetidine-1-carboxamide] | 0.325 nM | 117 nM | 48.9 nM |
| CC[C@H](C)C(=O)N1CC[C@@H](Oc2ccc(NC(=O)N3CC(c4cccnc4)C3)cc2)C1 [Example 86, N-[4-({(3R)-1-[(2S)-2-methylbutanoyl]pyrrolidin-3-yl}oxy)phenyl]-3-(pyridin-3-yl)azetidine-1-carboxamide] | 0.244 nM | 27.4 nM | 5.48 nM |
| O=C(CC1CCOCC1)N1CC[C@H](Oc2ccc(NC(=O)N3CC(c4cccnc4)C3)cc2)C1 [Example 88, 3-(pyridin-3-yl)-N-(4-{[(3S)-1-(tetrahydro-2H-pyran-4-ylacetyl)pyrrolidin-3-yl]oxy}phenyl)azetidine-1-carboxamide] | 0.58 nM | 269 nM | 109 nM |
| O=C(Nc1ccc(O[C@H]2CCN(C(=O)[C@@H]3CCCO3)C2)cc1)N1CC(c2cccnc2)C1 [Example 90, 3-(pyridin-3-yl)-N-[4-({(3S)-1-[(2S)-tetrahydrofuran-2-ylcarbonyl]pyrrolidin-3-yl}oxy)phenyl]azetidine-1-carboxamide] | 0.196 nM | 404 nM | 686 nM |
| CC(C)(O)C(=O)N1CC[C@H](Oc2ccc(NC(=O)N3CC(c4cccnc4)C3)cc2)C1 [Example 94, N-(4-{[(3S)-1-(2-hydroxy-2-methylpropanoyl)pyrrolidin-3-yl]oxy}phenyl)-3-(pyridin-3-yl)azetidine-1-carboxamide] | 0.213 nM | 488 nM | 598 nM |
| CC[C@H](C)C(=O)N1CC[C@H](Oc2ccc(NC(=O)N3CC(c4cccnc4)C3)cc2)C1 [Example 98, N-[4-({(3S)-1-[(2S)-2-methylbutanoyl]pyrrolidin-3-yl}oxy)phenyl]-3-(pyridin-3-yl)azetidine-1-carboxamide] | 1.19 nM | 616 nM | 70.9 nM |
| CCCC(=O)N1CC[C@H](Oc2ccc(NC(=O)N3CC(c4cccnc4)C3)cc2)C1 [Example 99, N-(4-{[(3S)-1-butanoylpyrrolidin-3-yl]oxy}phenyl)-3-(pyridin-3-yl)azetidine-1-carboxamide] | 0.414 nM | 223 nM | 49.3 nM |
| O=C(CC1CCOCC1)N1CC(c2ccc(NC(=O)N3CC(c4cccnc4)C3)cc2)C1 [Example 100, 3-(pyridin-3-yl)-N-{4-[1-(tetrahydro-2H-pyran-4-ylacetyl)azetidin-3-yl]phenyl}azetidine-1-carboxamide] | 0.309 nM | 108 nM | 27.3 nM |
| CC(C)C(=O)N1CC(c2ccc(NC(=O)N3CC(c4cccnc4)C3)cc2)C1 [Example 101, N-{4-[1-(2-methylpropanoyl)azetidin-3-yl]phenyl}-3-(pyridin-3-yl)azetidine-1-carboxamide] | 0.629 nM | 143 nM | 68.1 nM |
| O=C(Nc1ccc(C2CN(C(=O)[C@@H]3CCCO3)C2)cc1)N1CC(c2cccnc2)C1 [Example 102, 3-(pyridin-3-yl)-N-(4-{1-[(2S)-tetrahydrofuran-2-ylcarbonyl]azetidin-3-yl}phenyl)azetidine-1-carboxamide] | 0.286 nM | 95.7 nM | 67.9 nM |
| O=C(Nc1ccc(C2CN(C(=O)[C@H]3CCCO3)C2)cc1)N1CC(c2cccnc2)C1 [Example 103, 3-(pyridin-3-yl)-N-(4-{1-[(2R)-tetrahydrofuran-2-ylcarbonyl]azetidin-3-yl}phenyl)azetidine-1-carboxamide] | 0.287 nM | 296 nM | 98.1 nM |
| O=C(Nc1ccc(C2CN(C(=O)C3CCOC3)C2)cc1)N1CC(c2cccnc2)C1 (stereo not drawn) [Example 104, 3-(pyridin-3-yl)-N-{4-[1-(tetrahydrofuran-3-ylcarbonyl)azetidin-3-yl]phenyl}azetidine-1-carboxamide] | 0.389 nM | 188 nM | 95.1 nM |
| O=C(CC1CC1)N1CC(c2ccc(NC(=O)N3CC(c4cccnc4)C3)cc2)C1 [Example 105, N-{4-[1-(cyclopropylacetyl)azetidin-3-yl]phenyl}-3-(pyridin-3-yl)azetidine-1-carboxamide] | 0.208 nM | 68.3 nM | 60.9 nM |
| CC(C)(O)C(=O)N1CC(c2ccc(NC(=O)N3CC(c4cccnc4)C3)cc2)C1 [Example 106, N-{4-[1-(2-hydroxy-2-methylpropanoyl)azetidin-3-yl]phenyl}-3-(pyridin-3-yl)azetidine-1-carboxamide] | 0.553 nM | 204 nM | 576 nM |
| O=C(Nc1ccc(C2CN(C(=O)c3ccccc3)C2)cc1)N1CC(c2cccnc2)C1 [Example 107, N-[4-(1-benzoylazetidin-3-yl)phenyl]-3-(pyridin-3-yl)azetidine-1-carboxamide] | 0.342 nM | 12.3 nM | 5.99 nM |

— US9296723B2, “NAMPT inhibitors” (AbbVie Inc., priority 2012, dated 2016)
